Patent US7517874B2 (priority 2007, dated 2009)
pEC50: −log10 of the molar value. Where a name gives a salt, the structure may show the parent alone. Read-outs that look alike come from different tables or passages of the source.

Tests used:
[1] = target: human CB1 receptor (hCB1) (Homo sapiens, UniProt P21554); test: cell-based; assay type: cell-based; conditions: for +/− HCB1: agonist or inverse agonist at hCB1
In short: (§1)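 Agonism or inverse agonism was assessed as change in intracellular cAMP in CHO-K1 cells expressing human CB1 or rat CB2 (genomic DNA, pcDNA3.1).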

rat CB2 receptor (rCB2) = target: T1, rat CB2 receptor (rCB2) (Rattus norvegicus, UniProt Q9QZN9); test: cell-based; assay type: cell-based; conditions: for +/− RCB2: agonist or inverse agonist at rCB2
T1 sequence (Q9QZN9 1-360): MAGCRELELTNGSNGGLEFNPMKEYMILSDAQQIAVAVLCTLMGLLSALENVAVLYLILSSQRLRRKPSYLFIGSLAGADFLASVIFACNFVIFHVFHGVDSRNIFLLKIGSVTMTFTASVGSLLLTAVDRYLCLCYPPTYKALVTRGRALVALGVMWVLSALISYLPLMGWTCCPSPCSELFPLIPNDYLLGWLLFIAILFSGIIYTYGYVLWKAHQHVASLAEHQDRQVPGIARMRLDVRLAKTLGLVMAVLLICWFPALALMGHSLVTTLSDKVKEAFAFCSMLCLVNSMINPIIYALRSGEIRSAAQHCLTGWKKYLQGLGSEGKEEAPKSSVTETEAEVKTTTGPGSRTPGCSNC
In short: as §1

Sequence of human CB1 receptor (hCB1) (P21554 whole entry): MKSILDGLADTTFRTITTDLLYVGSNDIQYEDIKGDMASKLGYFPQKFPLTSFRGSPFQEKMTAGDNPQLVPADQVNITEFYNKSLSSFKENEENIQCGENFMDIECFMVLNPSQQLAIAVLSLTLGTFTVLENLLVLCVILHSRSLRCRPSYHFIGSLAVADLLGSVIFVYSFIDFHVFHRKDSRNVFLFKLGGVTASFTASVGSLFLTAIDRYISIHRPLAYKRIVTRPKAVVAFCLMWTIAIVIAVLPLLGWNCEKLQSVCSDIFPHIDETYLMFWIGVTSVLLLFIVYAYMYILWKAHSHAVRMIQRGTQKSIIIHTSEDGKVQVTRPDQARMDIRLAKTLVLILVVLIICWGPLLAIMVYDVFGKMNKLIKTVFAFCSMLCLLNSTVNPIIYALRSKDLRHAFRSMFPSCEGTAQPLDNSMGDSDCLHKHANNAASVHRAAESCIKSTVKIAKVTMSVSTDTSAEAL

Question: How did the pEC50 [1] turn out when `CNC(=O)[C@@H](NC(=O)c1nc(-c2ccccc2)n2c1CN(C)CC2)C(C)C` [Compound 206, (S)-7-methyl-N-(3-methyl-1-(methylamino)-1-oxobutan-2-yl)-3-phenyl-5,6,7,8-tetrahydroimidazo[1,5-a]pyrazine-1-carboxamide] was run?
Answer: Its pEC50 is under 5.00.

Question: What about the “+/− RCB2” value (rat CB2 receptor (rCB2)) of the same compound?
Answer: The value was “+”.

Question: What does the source list for `CC12CCC(C1)C(C)(C)C2NC(=O)c1nc(-c2ccccc2)n2c1CNCC2` (centres unmarked) [Compound 39, 3-Phenyl-N-(1,3,3-trimethylbicyclo[2.2.1]heptan-2-yl)-5,6,7,8-tetrahydro-imidazo[1,5-a]pyrazine-1-carboxamide HCl]?
Answer: pEC50 [1]: < 5.00; +/− RCB2 (rat CB2 receptor (rCB2)): +

Question: With `COC(=O)[C@@H](NC(=O)c1nc(-c2ccccc2)n2c1CN(C)CC2)C(C)(C)C` [Compound 86, (S)-methyl 3,3-dimethyl-2-(7-methyl-3-phenyl-5,6,7,8-tetrahydro-imidazo[1,5-a]pyrazine-1-carboxamido)butanoate] as the compound, how does the pEC50 [1] read?
Answer: Its pEC50 is under 5.00.

Question: And the “+/− RCB2” value (rat CB2 receptor (rCB2))?
Answer: Its value is “+”.

Question: Which results are given for `CC(C)C[C@H](NC(=O)c1nc(-c2cccc(F)c2)n2c1CN(C)CCC2)C(N)=O` [Compound 566, (S)-N-(1-amino-4-methyl-1-oxopentan-2-yl)-3-(3-fluorophenyl)-8-methyl-6,7,8,9-tetrahydro-5H-imidazo[1,5-a][1,4]diazepine-1-carboxamide]?
Answer: pEC50 [1]: < 5.00; +/− RCB2 (rat CB2 receptor (rCB2)): +

Question: With `CCS(=O)(=O)N1CCn2c(-c3ccccc3)nc(C(=O)NC3C4(C)CCC(C4)C3(C)C)c2C1` (centres unmarked) [Compound 112, 7-(ethylsulfonyl)-3-phenyl-N-(1,3,3-trimethylbicyclo[2.2.1]heptan-2-yl)-5,6,7,8-tetrahydroimidazo[1,5-a]pyrazine-1-carboxamide] as the compound, how does the pEC50 [1] read?
Answer: The pEC50 was under 5.00.

Question: What about the “+/− RCB2” value (rat CB2 receptor (rCB2)) of the same compound?
Answer: Its value is “−”.

Question: `CNC(=O)[C@@H](NC(=O)c1nc(CCC2CCCCC2)n2c1CN(C)CCC2)C(C)(C)C` [Compound 493, (S)-3-(2-cyclohexylethyl)-N-(3,3-dimethyl-1-(methylamino)-1-oxobutan-2-yl)-8-methyl-6,7,8,9-tetrahydro-5H-imidazo[1,5-a][1,4]diazepine-1-carboxamide] was tested. Which pEC50 [1] did it give?
Answer: Its pEC50 is under 5.00.

Question: And the “+/− RCB2” value (rat CB2 receptor (rCB2))?
Answer: The value was “−”.

Question: `CNC(=O)[C@@H](NC(=O)c1nc(C(C)C(F)(F)F)n2c1CN(C)CCC2)C(C)(C)C` (stereo partly drawn) [Compound 505, N-((S)-3,3-dimethyl-1-(methylamino)-1-oxobutan-2-yl)-8-methyl-3-(1,1,1-trifluoropropan-2-yl)-6,7,8,9-tetrahydro-5H-imidazo[1,5-a][1,4]diazepine-1-carboxamide] was tested. Which “+/− HCB1” value [1] did it give?
Answer: Its value is “+”.

Question: What about the “+/− RCB2” value (rat CB2 receptor (rCB2)) of the same compound?
Answer: The value was “+”.

Question: With `CNC(=O)[C@@H](NC(=O)c1nc(-c2c(F)cccc2OC)n2c1CN(C)CCC2)C(C)(C)C` [Compound 365, N-((S)-3,3-dimethyl-1-(methylamino)-1-oxobutan-2-yl)-3-(2-fluoro-6-methoxyphenyl)-8-methyl-6,7,8,9-tetrahydro-5H-imidazo[1,5-a][1,4]diazepine-1-carboxamide] as the compound, how does the pEC50 [1] read?
Answer: Its pEC50 is under 5.00.

Question: What about the “+/− RCB2” value (rat CB2 receptor (rCB2)) of the same compound?
Answer: The value was “+”.

Question: What does the source list for `CNC(=O)[C@@H](NC(=O)c1nc(C2CCCCCC2)n2c1CN(C)CCC2)C(C)(C)C` [Compound 498, (S)-3-cycloheptyl-N-(3,3-dimethyl-1-(methylamino)-1-oxobutan-2-yl)-8-methyl-6,7,8,9-tetrahydro-5H-imidazo[1,5-a][1,4]diazepine-1-carboxamide]?
Answer: +/− HCB1 [1]: +; +/− RCB2 (rat CB2 receptor (rCB2)): +

Question: For `CNC(=O)[C@@H](NC(=O)c1nc(-c2cnn(C)c2)n2c1CNCC2)C(C)(C)C` [Compound 17, (S)-N-(3,3-dimethyl-1-(methylamino)-1-oxobutan-2-yl)-3-(1-methyl-1H-pyrazol-4-yl)-5,6,7,8-tetrahydroimidazo[1,5-a]pyrazine-1-carboxamide], which EC50 ([1]; groups >100 nM-10 μM and >10 μM, cAMP, CHO-K1 hCB1, read-out: EC50 HCB1) is on record?
Answer: The EC50 was over 10000 nM.

Question: What about the EC50 (rat CB2 receptor (rCB2); groups >100 nM-10 μM and >10 μM, cAMP, CHO-K1 rCB2, read-out: EC50 RCB2) of the same compound?
Answer: The EC50 was over 10000 nM.

Question: With `CNC(=O)[C@@H](NC(=O)c1nc(-c2cc(C(F)(F)F)cc(C(F)(F)F)c2)n2c1CN(C)CCC2)C(C)(C)C` [Compound 599, (S)-3-(3,5-bis(trifluoromethyl)phenyl)-N-(3,3-dimethyl-1-(methylamino)-1-oxobutan-2-yl)-8-methyl-6,7,8,9-tetrahydro-5H-imidazo[1,5-a][1,4]diazepine-1-carboxamide] as the compound, how does the pEC50 [1] read?
Answer: The pEC50 was under 5.00.

Question: What about the pEC50 (rat CB2 receptor (rCB2)) of the same compound?
Answer: The pEC50 was under 5.00.

Question: With `CN(C)C(=O)[C@@H](NC(=O)c1nc(-c2ccccc2)n2c1CNCC2)C(C)(C)C` [Compound 196, (S)-N-(1-(dimethylamino)-3,3-dimethyl-1-oxobutan-2-yl)-3-phenyl-5,6,7,8-tetrahydroimidazo[1,5-a]pyrazine-1-carboxamide] as the compound, how does the pEC50 [1] read?
Answer: Its pEC50 is under 5.00.

Question: What about the “+/− RCB2” value (rat CB2 receptor (rCB2)) of the same compound?
Answer: The value was “−”.

Question: With `C/C=C/c1nc(C(=O)N[C@H](C(=O)NC)C(C)(C)C)c2n1CCN(C)C2` [Compound 243, (S,E)-N-(3,3-dimethyl-1-(methylamino)-1-oxobutan-2-yl)-7-methyl-3-(prop-1-enyl)-5,6,7,8-tetrahydroimidazo[1,5-a]pyrazine-1-carboxamide] as the compound, how does the pEC50 [1] read?
Answer: The pEC50 was under 5.00.

Question: And the “+/− RCB2” value (rat CB2 receptor (rCB2))?
Answer: The value was “+”.

Question: `CNC(=O)[C@@H](NC(=O)c1nc(-c2cccc(C#N)c2)n2c1CN(C)CCC2)C(C)(C)C` [Compound 328, (S)-3-(3-cyanophenyl)-N-(3,3-dimethyl-1-(methylamino)-1-oxobutan-2-yl)-8-methyl-6,7,8,9-tetrahydro-5H-imidazo[1,5-a][1,4]diazepine-1-carboxamide] was tested. Which pEC50 [1] did it give?
Answer: Its pEC50 is under 5.00.

Question: And the “+/− RCB2” value (rat CB2 receptor (rCB2))?
Answer: Its value is “+”.

Question: Which results are given for `CNC(=O)[C@@H](NC(=O)c1nc(-c2ccccc2)n2c1CN(S(=O)(=O)c1ccccc1F)CC2)C(C)(C)C` [Compound 98, (S)-N-(3,3-dimethyl-1-(methylamino)-1-oxobutan-2-yl)-7-(2-fluorophenylsulfonyl)-3-phenyl-5,6,7,8-tetrahydroimidazo[1,5-a]pyrazine-1-carboxamide]?
Answer: pEC50 [1]: < 5.00; +/− RCB2 (rat CB2 receptor (rCB2)): −

Question: Which results are given for `CNC(=O)[C@@H](NC(=O)c1nc(/C=C/CN2CCOCC2)n2c1CN(C)CCC2)C(C)(C)C` [Compound 509, (S,E)-N-(3,3-dimethyl-1-(methylamino)-1-oxobutan-2-yl)-8-methyl-3-(3-morpholinoprop-1-enyl)-6,7,8,9-tetrahydro-5H-imidazo[1,5-a][1,4]diazepine-1-carboxamide]?
Answer: pEC50 [1]: < 5.00; pEC50 (rat CB2 receptor (rCB2)): < 5.00

Question: `CC(C)CN1CCn2c(-c3ccccc3)nc(C(=O)NC3CCCCC3)c2C1` [Compound 165, N-cyclohexyl-7-isobutyl-3-phenyl-5,6,7,8-tetrahydroimidazo[1,5-a]pyrazine-1-carboxamide] was tested. Which pEC50 [1] did it give?
Answer: The pEC50 was under 5.00.

Question: And the “+/− RCB2” value (rat CB2 receptor (rCB2))?
Answer: Its value is “−”.

Question: What does the source list for `CNC(=O)[C@@H](NC(=O)c1nc(-c2cccc(Cl)c2F)n2c1CN(C)CCC2)C(C)(C)C` [Compound 356, (S)-3-(3-chloro-2-fluorophenyl)-N-(3,3-dimethyl-1-(methylamino)-1-oxobutan-2-yl)-8-methyl-6,7,8,9-tetrahydro-5H-imidazo[1,5-a][1,4]diazepine-1-carboxamide]?
Answer: pEC50 [1]: < 5.00; pEC50 (rat CB2 receptor (rCB2)): < 5.00

Question: What does the source list for `CNC(=O)[C@@H](NC(=O)c1nc(-c2ccc(N(C)C)cc2)n2c1CN(C)CCC2)C(C)(C)C` [Compound 381, (S)-N-(3,3-dimethyl-1-(methylamino)-1-oxobutan-2-yl)-3-(4-(dimethylamino)phenyl)-8-methyl-6,7,8,9-tetrahydro-5H-imidazo[1,5-a][1,4]diazepine-1-carboxamide]?
Answer: pEC50 [1]: < 5.00; +/− RCB2 (rat CB2 receptor (rCB2)): −

Question: With `CNC(=O)[C@@H](NC(=O)c1nc(-c2ccc(NS(C)(=O)=O)cc2)n2c1CN(C)CCC2)C(C)(C)C` [Compound 420, (S)-N-(3,3-dimethyl-1-(methylamino)-1-oxobutan-2-yl)-8-methyl-3-(4-(methylsulfonamido)phenyl)-6,7,8,9-tetrahydro-5H-imidazo[1,5-a][1,4]diazepine-1-carboxamide] as the compound, how does the pEC50 [1] read?
Answer: The pEC50 was under 5.00.

Question: And the “+/− RCB2” value (rat CB2 receptor (rCB2))?
Answer: The value was “−”.

Question: With `CN1CCn2c(-c3ccccc3)nc(C(=O)N[C@H](CO)C(C)(C)C)c2C1` [Compound 59, (S)-N-(1-hydroxy-3,3-dimethylbutan-2-yl)-7-methyl-3-phenyl-5,6,7,8-tetrahydroimidazo[1,5-a]pyrazine-1-carboxamide] as the compound, how does the pEC50 [1] read?
Answer: Its pEC50 is under 5.00.

Question: What about the pEC50 (rat CB2 receptor (rCB2)) of the same compound?
Answer: Its pEC50 is under 5.00.

Question: `CC(=O)N1CCn2c(-c3ccccc3)nc(C(=O)NC3CCCCC3)c2C1` [Compound 177, 7-acetyl-N-cyclohexyl-3-phenyl-5,6,7,8-tetrahydroimidazo[1,5-a]pyrazine-1-carboxamide] was tested. Which pEC50 [1] did it give?
Answer: Its pEC50 is under 5.00.

Question: What about the “+/− RCB2” value (rat CB2 receptor (rCB2)) of the same compound?
Answer: The value was “−”.

Question: `CNC(=O)[C@@H](NC(=O)c1nc(-c2ccsc2)n2c1CN(C)CCC2)C(C)(C)C` [Compound 329, (S)-N-(3,3-dimethyl-1-(methylamino)-1-oxobutan-2-yl)-8-methyl-3-(thiophen-3-yl)-6,7,8,9-tetrahydro-5H-imidazo[1,5-a][1,4]diazepine-1-carboxamide] was tested. Which pEC50 [1] did it give?
Answer: The pEC50 was under 5.00.

Question: And the “+/− RCB2” value (rat CB2 receptor (rCB2))?
Answer: Its value is “+”.

Question: How did the “+/− HCB1” value [1] turn out when `CC(C)C[C@H](NC(=O)c1nc(-c2ccc(F)cc2F)n2c1CN(C)CCC2)C(N)=O` [Compound 568, (S)-N-(1-amino-4-methyl-1-oxopentan-2-yl)-3-(2,4-difluorophenyl)-8-methyl-6,7,8,9-tetrahydro-5H-imidazo[1,5-a][1,4]diazepine-1-carboxamide] was run?
Answer: The value was “+”.

Question: What about the “+/− RCB2” value (rat CB2 receptor (rCB2)) of the same compound?
Answer: The value was “+”.

Question: `CNC(=O)[C@@H](NC(=O)c1nc(-c2cccc(N(C)C)c2)n2c1CN(C)CCC2)C(C)(C)C` [Compound 382, (S)-N-(3,3-dimethyl-1-(methylamino)-1-oxobutan-2-yl)-3-(3-(dimethylamino)phenyl)-8-methyl-6,7,8,9-tetrahydro-5H-imidazo[1,5-a][1,4]diazepine-1-carboxamide] was tested. Which pEC50 [1] did it give?
Answer: The pEC50 was under 5.00.

Question: And the “+/− RCB2” value (rat CB2 receptor (rCB2))?
Answer: The value was “−”.
